Data reported in patent US20020137929A1, “1 - (3-heterocyclylphenyl) isothiourea, -isourea, -guanidine and -amidine herbicidal agents” (Intellectual Property Department, BASF Aktiengesellschaft, priority 1998, published 2002).

Columns and labels:
ECHCG (Barnyardgrass) = experiment: Postemergence herbicidal evaluation; format: in vivo, Echinochloa crus-galli; details: for ECHCG herbicidal rating: postemergence
Summary of the method: (§1)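 Rate range approx. 0.0156–0.500 kg/ha. Foliar application at 40 psi to ~2-week seedlings; surfactant 0.5% TWEEN 20 in 50/50 acetone/water. Evaluation 4–5 wk post-treatment by 0–9 visual injury score, means of replicate tests.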

[1] = test system: IPOHE (Morningglory, Ivyleaf); experiment: Preemergence herbicidal evaluation; format: in vivo, Ipomoea hederacea; details: rated 4-5 weeks after treatment; for IPOHE rating: preemergence, 0-9 scale
Summary of the method: (§2)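 Seeds were planted in potting soil in cups, then sprayed preemergence with the test compound in aqueous acetone at about 0.0156 to 0.500 kg per hectare. Cups were kept under greenhouse conditions and visually rated 4–5 weeks after treatment on a 0–9 scale against an untreated control.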

ABUTH (Velvetleaf) = experiment: Postemergence herbicidal evaluation; format: in vivo, Abutilon theophrasti; details: for ABUTH herbicidal rating: postemergence
Summary of the method: as §1

[2] = test system: TRZAWR (Wheat, Winter, cv Riband); experiment: Preemergence herbicidal evaluation; format: in vivo, Triticum aestivum; details: rated 4-5 weeks after treatment; for TRZAWR rating: preemergence, 0-9 scale
Summary of the method: as §2

[3] = test system: ECHORC (Watergrass (Calif.)); experiment: Preemergence weed control under flooded paddy conditions; format: in vivo, Echinochloa oryzoides; details: rated 3-4 weeks after treatment
Summary of the method: (§3)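 Seeds or propagules sown in top 0.5 cm of silt loam soil, flooded 1.5 to 3 cm above surface throughout. Compound in 50/50 v/v aqueous/acetone pipetted into flood water at about 0.0313 to 0.500 kg/ha. Visual 0-9 rating versus control after three to four weeks in greenhouse.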

ORYSAT (Rice, Tebonnet) = experiment: Postemergence herbicidal evaluation; format: in vivo, Oryza sativa, (L.) Tebonnet; details: for ORYSAT herbicidal rating: postemergence
Summary of the method: as §1

CYPIR (Rice Flatsedge) [4] = experiment: Postemergence weed control under flooded paddy conditions; format: in vivo, Cyperus iria; details: postemergence weeds
Summary of the method: (§4)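 Containers holding 3–5 cm weeds and rice at 1.5–2.5 leaves are flooded to 1.5–3 cm above soil. Compound in 50/50 v/v aqueous/acetone is then added directly to the water, about 0.0313–0.500 kg/ha. Plants are kept in the greenhouse and rated 0–9 visually at 3–4 weeks.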

GALAP (Galium) = experiment: Postemergence herbicidal evaluation; format: in vivo, Galium aparine; details: for GALAP herbicidal rating: postemergence
Summary of the method: as §1

SETVI (Foxtail, Green) = experiment: Postemergence herbicidal evaluation; format: in vivo, Setaria viridis; details: for SETVI herbicidal rating: postemergence
Summary of the method: as §1

ZEAMX (Corn, Field) = experiment: Preemergence herbicidal evaluation; format: in vivo, Zea mays; details: rated 4-5 weeks after treatment; for ZEAMX rating: preemergence, 0-9 scale
Summary of the method: as §2

CYPSE (Flatsedge) = experiment: Postemergence weed control under flooded paddy conditions; format: in vivo, Cyperus serotinus; details: postemergence weeds
Summary of the method: as §4

CYPIR (Rice Flatsedge) [5] = experiment: Preemergence weed control under flooded paddy conditions; format: in vivo, Cyperus iria; details: rated 3-4 weeks after treatment
Summary of the method: as §3

[6] = test system: SAGPY (Arrowhead (Pygmaea)); experiment: Postemergence weed control under flooded paddy conditions; format: in vivo, Sagittaria pygmaea; details: postemergence weeds
Summary of the method: as §4

[7] = Rate 0.0625 kg/ha, rated 3 to 4 weeks after treatment
[8] = Rate 0.1250 kg/ha, rated 3 to 4 weeks after treatment
[9] = Rate 0.2500 kg/ha, rated 3 to 4 weeks after treatment
[10] = rate 0.0313 kg/ha, 3-4 weeks after treatment
[11] = rate 0.0625 kg/ha, 3-4 weeks after treatment
[12] = rate 0.1250 kg/ha, 3-4 weeks after treatment
[13] = rate 0.2500 kg/ha, 3-4 weeks after treatment

SMILES: COC(=O)C1(N2C(=O)CSC2=Nc2cc(-n3c(=O)cc(C(F)(F)F)n(C)c3=O)c(F)cc2Cl)CCCCC1 [Compound 81, Methyl 1-{2-{{2-chloro-5-[3,6-dihydro-3-methyl-2,6-dioxo-4-(trifluoromethyl)-1(2H)-pyrimidinyl]-4-fluorophenyl}imino}-4-oxo-3-thiazolidinyl}-cyclohexanecarboxylate]
- ECHCG herbicidal rating (ECHCG (Barnyardgrass); rate 0.0158 kg/ha): 1.0
- ECHCG herbicidal rating (ECHCG (Barnyardgrass); rate 0.0315 kg/ha): 2.0
- ECHCG herbicidal rating (ECHCG (Barnyardgrass); rate 0.0630 kg/ha): 6.0
- IPOHE rating ([1]; 0.0313 kg/ha): 0.0
- IPOHE rating ([1]; 0.1250 kg/ha): 1.0
- IPOHE rating ([1]; 0.2500 kg/ha): 9.0
- ABUTH herbicidal rating (ABUTH (Velvetleaf); rate 0.0158 kg/ha): 7.0
- ABUTH herbicidal rating (ABUTH (Velvetleaf); rate 0.0315 kg/ha): 7.0
- ABUTH herbicidal rating (ABUTH (Velvetleaf); rate 0.0630 kg/ha): 9.0
- TRZAWR rating ([2]; 0.0313 kg/ha): 0.0
- TRZAWR rating ([2]; 0.0625 kg/ha): 0.0
- TRZAWR rating ([2]; 0.1250 kg/ha): 1.0
- TRZAWR rating ([2]; 0.2500 kg/ha): 1.0
- ECHORC herbicidal effect rating ([3]; 0.0625 kg/ha): 0.0
- ECHORC herbicidal effect rating ([3]; 0.1250 kg/ha): 3.0
- ECHORC herbicidal effect rating ([3]; 0.2500 kg/ha): 3.0
- ORYSAT herbicidal rating (ORYSAT (Rice, Tebonnet); rate 0.0158 kg/ha): 4.5
- ORYSAT herbicidal rating (ORYSAT (Rice, Tebonnet); rate 0.0315 kg/ha): 4.5
- ORYSAT herbicidal rating (ORYSAT (Rice, Tebonnet); rate 0.0630 kg/ha): 5.5
- Herbicidal rating CYPIR (CYPIR (Rice Flatsedge) [4]; [7]): 4.0
- Herbicidal rating CYPIR (CYPIR (Rice Flatsedge) [4]; [8]): 5.0
- Herbicidal rating CYPIR (CYPIR (Rice Flatsedge) [4]; [9]): 5.0
- GALAP herbicidal rating (GALAP (Galium); rate 0.0158 kg/ha): 1.0
- GALAP herbicidal rating (GALAP (Galium); rate 0.0315 kg/ha): 5.0
- GALAP herbicidal rating (GALAP (Galium); rate 0.0630 kg/ha): 4.0
- SETVI herbicidal rating (SETVI (Foxtail, Green); rate 0.0158 kg/ha): 1.0
- SETVI herbicidal rating (SETVI (Foxtail, Green); rate 0.0315 kg/ha): 1.0
- SETVI herbicidal rating (SETVI (Foxtail, Green); rate 0.0630 kg/ha): 9.0
- ZEAMX rating (ZEAMX (Corn, Field); 0.0313 kg/ha): 0.0
- ZEAMX rating (ZEAMX (Corn, Field); 0.0625 kg/ha): 2.0
- ZEAMX rating (ZEAMX (Corn, Field); 0.1250 kg/ha): 2.0
- ZEAMX rating (ZEAMX (Corn, Field); 0.2500 kg/ha): 2.0
- Herbicidal rating CYPSE (CYPSE (Flatsedge); [7]): 0.0
- Herbicidal rating CYPSE (CYPSE (Flatsedge); [8]): 0.0
- Herbicidal rating CYPSE (CYPSE (Flatsedge); [9]): 0.0
- CYPIR herbicidal effect rating (CYPIR (Rice Flatsedge) [5]; 0.0625 kg/ha): 4.0
- CYPIR herbicidal effect rating (CYPIR (Rice Flatsedge) [5]; 0.1250 kg/ha): 5.0
- CYPIR herbicidal effect rating (CYPIR (Rice Flatsedge) [5]; 0.2500 kg/ha): 5.0
- Herbicidal rating SAGPY [6, 7]: 0.0
- Herbicidal rating SAGPY [6, 8]: 0.0
- Herbicidal rating SAGPY [6, 9]: 0.0

SMILES: CCOC(=O)CN1CCSC1=Nc1cc(-n2nc(C)n(C(F)F)c2=O)c(F)cc1Cl [Compound 36]
- Postemergence herbicidal rating ECHCG (ECHCG (Barnyardgrass); Rate 0.0158 kg/ha): 0.0
- Postemergence herbicidal rating ECHCG (ECHCG (Barnyardgrass); Rate 0.0315 kg/ha): 2.0
- Postemergence herbicidal rating ECHCG (ECHCG (Barnyardgrass); Rate 0.0630 kg/ha): 9.0
- Preemergence herbicidal rating IPOHE ([1]; rate 0.0625 kg/ha): 0.0
- Preemergence herbicidal rating IPOHE ([1]; rate 0.1250 kg/ha): 0.0
- Preemergence herbicidal rating IPOHE ([1]; rate 0.2500 kg/ha): 0.0
- Postemergence herbicidal rating ABUTH (ABUTH (Velvetleaf); Rate 0.0158 kg/ha): 9.0
- Postemergence herbicidal rating ABUTH (ABUTH (Velvetleaf); Rate 0.0315 kg/ha): 9.0
- Postemergence herbicidal rating ABUTH (ABUTH (Velvetleaf); Rate 0.0630 kg/ha): 9.0
- Preemergence herbicidal rating TRZAWR ([2]; rate 0.0625 kg/ha): 0.0
- Preemergence herbicidal rating TRZAWR ([2]; rate 0.1250 kg/ha): 1.0
- Preemergence herbicidal rating TRZAWR ([2]; rate 0.2500 kg/ha): 0.0
- Herbicidal rating ECHORC ([3]; 0.0313 kg/ha): 4.0
- Herbicidal rating ECHORC ([3]; 0.0625 kg/ha): 6.0
- Herbicidal rating ECHORC ([3]; 0.1250 kg/ha): 7.0
- Herbicidal rating ECHORC ([3]; 0.2500 kg/ha): 9.0
- Postemergence herbicidal rating ORYSAT (ORYSAT (Rice, Tebonnet); Rate 0.0158 kg/ha): 0.5
- Postemergence herbicidal rating ORYSAT (ORYSAT (Rice, Tebonnet); Rate 0.0315 kg/ha): 1.0
- Postemergence herbicidal rating ORYSAT (ORYSAT (Rice, Tebonnet); Rate 0.0630 kg/ha): 6.0
- Herbicidal rating CYPIR (CYPIR (Rice Flatsedge) [4]; [10]): 0.0
- Herbicidal rating CYPIR (CYPIR (Rice Flatsedge) [4]; [11]): 5.0
- Herbicidal rating CYPIR (CYPIR (Rice Flatsedge) [4]; [12]): 5.0
- Herbicidal rating CYPIR (CYPIR (Rice Flatsedge) [4]; [13]): 9.0
- Postemergence herbicidal rating GALAP (GALAP (Galium); Rate 0.0158 kg/ha): 0.0
- Postemergence herbicidal rating GALAP (GALAP (Galium); Rate 0.0315 kg/ha): 1.0
- Postemergence herbicidal rating GALAP (GALAP (Galium); Rate 0.0630 kg/ha): 4.0
- Postemergence herbicidal rating SETVI (SETVI (Foxtail, Green); Rate 0.0158 kg/ha): 3.0
- Postemergence herbicidal rating SETVI (SETVI (Foxtail, Green); Rate 0.0315 kg/ha): 9.0
- Postemergence herbicidal rating SETVI (SETVI (Foxtail, Green); Rate 0.0630 kg/ha): 9.0
- Preemergence herbicidal rating ZEAMX (ZEAMX (Corn, Field); rate 0.0625 kg/ha): 0.0
- Preemergence herbicidal rating ZEAMX (ZEAMX (Corn, Field); rate 0.1250 kg/ha): 3.0
- Preemergence herbicidal rating ZEAMX (ZEAMX (Corn, Field); rate 0.2500 kg/ha): 6.0
- Herbicidal rating CYPSE (CYPSE (Flatsedge); [10]): 0.0
- Herbicidal rating CYPSE (CYPSE (Flatsedge); [11]): 0.0
- Herbicidal rating CYPSE (CYPSE (Flatsedge); [12]): 2.0
- Herbicidal rating CYPSE (CYPSE (Flatsedge); [13]): 4.0
- Herbicidal rating CYPIR (CYPIR (Rice Flatsedge) [5]; 0.0313 kg/ha): 0.0
- Herbicidal rating CYPIR (CYPIR (Rice Flatsedge) [5]; 0.0625 kg/ha): 5.0
- Herbicidal rating CYPIR (CYPIR (Rice Flatsedge) [5]; 0.1250 kg/ha): 5.0
- Herbicidal rating CYPIR (CYPIR (Rice Flatsedge) [5]; 0.2500 kg/ha): 9.0
- Herbicidal rating SAGPY [6, 10]: 0.0
- Herbicidal rating SAGPY [6, 11]: 0.0
- Herbicidal rating SAGPY [6, 12]: 3.0
- Herbicidal rating SAGPY [6, 13]: 9.0
